Consider 25 compounds from patent US7473669B2, “Substituted 4,5-dihydro-1,2,4-triazin-6-ones, 1,2,4-triazin-6-ones, and their use as fungicides” (priority 2005, dated 2009).

Common to all, as to type: in vivo
For assay [1], the system named is Puccinia recondita tritici. Put plainly: Leaf Rust of Wheat greenhouse one-day protectant test. Conditions: 24 h, read-out: PUCCRT percent control rating.
In assay [2] the test system is Colletotricum lagenarium. Put plainly: Cucumber Anthracnose greenhouse one-day protectant test. Conditions: Cucumis sativus, 24 h, read-out: COLLLA percent control rating.
For assay [3], the system named is Leptosphaeria nodorum. Nature of the assay: Glume Blotch of Wheat greenhouse one-day protectant test. Conditions: Parastagonospora nodorum, 24 h, read-out: LEPTNO percent control rating.
The test system of assay [4] is Pyricularia oryzae. Put plainly: whole plant or invertebrate. Conditions: 24 h, read-out: PYRIOR percent control rating.
Assay [5] has as its system Phytophthora infestans. Nature of the assay: whole plant or invertebrate. Conditions: in Solanum lycopersicum, 24 h.
Assay [6] deals with Erysiphe cichoracaerum. Nature of the assay: Cucumber Powdery Mildew greenhouse one-day protectant test. The settings on record: 24 h, read-out: ERYSCI percent control rating.
Where [7] appears, read: wheat plants, one-day protectant test, 200 ppm application rate.
[8] abbreviates: cucumber plants, one-day protectant test, 200 ppm application rate.
The mark [9] stands for this setting: read-out: PHYTIN percent control rating, tomato plants, one-day protectant test, 200 ppm application rate.

Each structure is given as a SMILES string. Like-named read-outs stand apart in the source and are kept apart here.

For `CS(=O)(=O)OCCN1N=C(c2ccc(Cl)nc2)NCC1=O` [Compound 1], the pest or weed control at 200 ppm in assay [1] (setting [7]) fell in the range of 0 to 49%; in assay [2] (setting [8]), 0 to 49%; in assay [3] (setting [7]), 0 to 49%; in assay [4] it was 50 to 79%; in assay [5] (setting [9]) it was 0 to 49%; in assay [6] (setting [8]) it was 0 to 49%.

In the case of `Cc1cc(C)cc(C2=NN(CCO)C(=O)CN2)c1` [Compound 2], the pest or weed control at 200 ppm is 0 to 49% in assay [1] (setting [7]); 0 to 49% in assay [2] (setting [8]); 0 to 49% in assay [3] (setting [7]); 80 to 100% in assay [4]; 0 to 49% in assay [5] (setting [9]); 0 to 49% in assay [6] (setting [8]).

Turning to `Cc1cc(C)cc(C2=NN(CCOC(=O)Nc3ccc4c(c3)OCO4)C(=O)CN2)c1` [Compound 3], the pest or weed control at 200 ppm in assay [1] (setting [7]) was in the range of 80 to 100%; in assay [2] (setting [8]), 50 to 79%; in assay [3] (setting [7]), 50 to 79%; in assay [4] it was 80 to 100%; in assay [5] (setting [9]), 0 to 49%; in assay [6] (setting [8]), 0 to 49%.

Take `O=C1CNC(c2ccccc2)=NN1CCO` [Compound 4]: the pest or weed control at 200 ppm in assay [1] (setting [7]), in assay [2] (setting [8]), in assay [3] (setting [7]), in assay [4], in assay [5] (setting [9]) and in assay [6] (setting [8]) was 0 to 49% in each case.

For `Cc1cc(C)cc(C2=NN(Cc3ccccn3)C(=O)CN2)c1` [Compound 5], the pest or weed control at 200 ppm in assay [1] (setting [7]) lay in the range of 0 to 49%; in assay [2] (setting [8]) it was 50 to 79%; in assay [3] (setting [7]) it was 80 to 100%; in assay [4], 0 to 49%; in assay [5] (setting [9]), 0 to 49%; in assay [6] (setting [8]) it was 0 to 49%.

Turning to `O=C1CNC(c2cc(Cl)cc(Cl)c2)=NN1Cc1ccccn1` [Compound 6], the pest or weed control at 200 ppm in assay [1] (setting [7]) lay in the range of 80 to 100%; in assay [2] (setting [8]), 50 to 79%; in assay [3] (setting [7]), 80 to 100%; in assay [4] it was 80 to 100%; in assay [5] (setting [9]), 0 to 49%; in assay [6] (setting [8]) it was 0 to 49%.

`O=C1CNC(c2cc(Cl)cc(Cl)c2)=NN1CCO` [Compound 7]: the pest or weed control at 200 ppm in assay [1] (setting [7]) was 50 to 79%; in assay [2] (setting [8]), 0 to 49%; in assay [3] (setting [7]), 50 to 79%; in assay [4], 0 to 49%; in assay [5] (setting [9]) it was 0 to 49%; in assay [6] (setting [8]), 0 to 49%.

For `O=C1CNC(c2cc(Cl)cc(Cl)c2)=NN1CO` [Compound 8], the pest or weed control at 200 ppm in assay [1] (setting [7]) lay in the range of 0 to 49%; in assay [2] (setting [8]) it was 0 to 49%; in assay [3] (setting [7]) it was 50 to 79%; in assay [4], 0 to 49%; in assay [5] (setting [9]), 0 to 49%; in assay [6] (setting [8]) it was 0 to 49%.

In the case of `O=C1CNC(c2ccc(Cl)c(Cl)c2)=NN1CO` [Compound 9], the pest or weed control at 200 ppm in assay [1] (setting [7]) fell in the range of 50 to 79%; in assay [2] (setting [8]), 0 to 49%; in assay [3] (setting [7]) it was 80 to 100%; in assay [4], 0 to 49%; in assay [5] (setting [9]), 0 to 49%; in assay [6] (setting [8]), 0 to 49%.

`O=C1CNC(c2ccc(Cl)c(Cl)c2)=NN1C(=O)C(F)(F)F` [Compound 10]: the pest or weed control at 200 ppm in assay [1] (setting [7]) lay in the range of 0 to 49%; in assay [2] (setting [8]), 50 to 79%; in assay [3] (setting [7]) it was 50 to 79%; in assay [4], 80 to 100%; in assay [5] (setting [9]), 0 to 49%; in assay [6] (setting [8]) it was 0 to 49%.

On to `O=C1CNC(c2cc(Cl)cc(Cl)c2)=NN1C(=O)C(F)(F)F` [Compound 11], for which the pest or weed control at 200 ppm was 0 to 49% in assay [1] (setting [7]); 50 to 79% in assay [2] (setting [8]); 50 to 79% in assay [3] (setting [7]); 50 to 79% in assay [4]; 0 to 49% in assay [5] (setting [9]); 0 to 49% in assay [6] (setting [8]).

Turning to `CC(=O)OCN1N=C(c2ccc(Cl)c(Cl)c2)NCC1=O` [Compound 14], the pest or weed control at 200 ppm in assay [1] (setting [7]) lay within 50 to 79%; in assay [2] (setting [8]), 0 to 49%; in assay [3] (setting [7]) it was 0 to 49%; in assay [4], 0 to 49%; in assay [5] (setting [9]), 0 to 49%; in assay [6] (setting [8]), 0 to 49%.

Regarding `O=C1CNC(c2cc(Cl)cc(Cl)c2)=NN1CN1CCOCC1` [Compound 15], the pest or weed control at 200 ppm in assay [1] (setting [7]) was 0 to 49%; in assay [2] (setting [8]), 0 to 49%; in assay [3] (setting [7]), 50 to 79%; in assay [4], 80 to 100%; in assay [5] (setting [9]), 0 to 49%; in assay [6] (setting [8]), 0 to 49%.

On to `CCCCN1N=C(c2ccc(Oc3cccnc3)cc2)NCC1=O` [Compound 16], for which the pest or weed control at 200 ppm in assay [1] (setting [7]) lay in the range of 80 to 100%; in assay [2] (setting [8]), 0 to 49%; in assay [3] (setting [7]), 0 to 49%; in assay [4], 0 to 49%; in assay [5] (setting [9]), 0 to 49%; in assay [6] (setting [8]), 0 to 49%.

For the compound `O=C1CNC(c2cccc(OCc3ccccc3)c2)=NN1CC(F)(F)F` [Compound 17], the pest or weed control at 200 ppm in assay [1] (setting [7]) lay in the range of 80 to 100%; in assay [2] (setting [8]), 80 to 100%; in assay [3] (setting [7]), 80 to 100%; in assay [4] it was 80 to 100%; in assay [5] (setting [9]) it was 0 to 49%; in assay [6] (setting [8]), 0 to 49%.

Turning to `N#CCCN1N=C(c2cccc(OCc3ccccc3)c2)NCC1=O` [Compound 18], the pest or weed control at 200 ppm in assay [1] (setting [7]) is 80 to 100%; in assay [2] (setting [8]), 50 to 79%; in assay [3] (setting [7]), 50 to 79%; in assay [4], 50 to 79%; in assay [5] (setting [9]) it was 0 to 49%; in assay [6] (setting [8]), 0 to 49%.

For the compound `O=C1CNC(c2cccc(OCc3ccccc3)c2)=NN1CCF` [Compound 19], the pest or weed control at 200 ppm in assay [1] (setting [7]) fell in the range of 80 to 100%; in assay [2] (setting [8]), 0 to 49%; in assay [3] (setting [7]), 50 to 79%; in assay [4], 50 to 79%; in assay [5] (setting [9]), 0 to 49%; in assay [6] (setting [8]) it was 0 to 49%.

On to `O=C1CNC(c2cccc(OCc3ccccc3)c2)=NN1Cc1ccccc1` [Compound 20], for which the pest or weed control at 200 ppm lay within 80 to 100% in assay [1] (setting [7]); 0 to 49% in assay [2] (setting [8]); 50 to 79% in assay [3] (setting [7]); 80 to 100% in assay [4]; 0 to 49% in assay [5] (setting [9]); 0 to 49% in assay [6] (setting [8]).

Regarding `O=C1CNC(c2cccc(OCc3ccccc3)c2)=NN1c1cccc(Br)c1` [Compound 21], the pest or weed control at 200 ppm in assay [1] (setting [7]) was in the range of 50 to 79%; in assay [2] (setting [8]), 0 to 49%; in assay [3] (setting [7]), 50 to 79%; in assay [4], 80 to 100%; in assay [5] (setting [9]) it was 0 to 49%; in assay [6] (setting [8]) it was 0 to 49%.

Take `O=C1CNC(c2cccc(O)c2)=NN1CC(F)(F)F` [Compound 22]: the pest or weed control at 200 ppm lay within 50 to 79% in assay [1] (setting [7]); 0 to 49% in assay [2] (setting [8]); 0 to 49% in assay [3] (setting [7]); 0 to 49% in assay [4]; 0 to 49% in assay [5] (setting [9]); 0 to 49% in assay [6] (setting [8]).

Turning to `O=C1CNC(c2cccc(OS(=O)(=O)C(F)(F)F)c2)=NN1CC(F)(F)F` [Compound 23], the pest or weed control at 200 ppm was in the range of 50 to 79% in assay [1] (setting [7]); 0 to 49% in assay [2] (setting [8]); 50 to 79% in assay [3] (setting [7]); 80 to 100% in assay [4]; 0 to 49% in assay [5] (setting [9]); 0 to 49% in assay [6] (setting [8]).

Take `O=C1CNC(c2cccc(Oc3cc(C(F)(F)F)cc(C(F)(F)F)n3)c2)=NN1CC(F)(F)F` [Compound 24]: the pest or weed control at 200 ppm fell in the range of 80 to 100% in assay [1] (setting [7]); 0 to 49% in assay [2] (setting [8]); 80 to 100% in assay [3] (setting [7]); 0 to 49% in assay [4]; 0 to 49% in assay [5] (setting [9]); 0 to 49% in assay [6] (setting [8]).

On to `O=C(Nc1c(Cl)cccc1Cl)Oc1cccc(C2=NN(CC(F)(F)F)C(=O)CN2)c1` [Compound 25], for which the pest or weed control at 200 ppm in assay [1], in assay [2], in assay [3], in assay [4], in assay [5] (read-out: PHYTIN percent control rating) and in assay [6] was 0 to 49% each time.

As to `O=C1CNC(c2cc(C=Cc3ccccc3)cc(-c3ccsc3)c2)=NN1CC(F)(F)F` [Compound 26], the pest or weed control at 200 ppm in assay [1] (setting [7]) lay in the range of 0 to 49%; in assay [2] (setting [8]), 0 to 49%; in assay [3] (setting [7]), 50 to 79%; in assay [4], 0 to 49%; in assay [5] (setting [9]), 0 to 49%; in assay [6] (setting [8]), 0 to 49%.

As for `O=C1C(SC2CCCCC2)NC(c2ccc(F)c(-c3ccccc3)c2)=NN1CC(F)(F)F` (stereo not shown) [Compound 48], the pest or weed control at 200 ppm fell in the range of 80 to 100% in assay [1] (setting [7]), 80 to 100% in assay [3] (setting [7]), 80 to 100% in assay [4] and 0 to 49% in assay [6] (setting [8]).
